Here are results for eight compounds from patent US6734206B1, “3-oxa-8-azaprostaglandin analogs as agents for lowering intraocular pressure” (Allergan, Inc., priority 2003, dated 2004).

Where only a bound is given, the exact number is not on record here.

The target in data set [1] is T1, hTP (Homo sapiens, UniProt P21731).
T1 construct: expressed in transfected cells
T1 sequence (P21731 1-343): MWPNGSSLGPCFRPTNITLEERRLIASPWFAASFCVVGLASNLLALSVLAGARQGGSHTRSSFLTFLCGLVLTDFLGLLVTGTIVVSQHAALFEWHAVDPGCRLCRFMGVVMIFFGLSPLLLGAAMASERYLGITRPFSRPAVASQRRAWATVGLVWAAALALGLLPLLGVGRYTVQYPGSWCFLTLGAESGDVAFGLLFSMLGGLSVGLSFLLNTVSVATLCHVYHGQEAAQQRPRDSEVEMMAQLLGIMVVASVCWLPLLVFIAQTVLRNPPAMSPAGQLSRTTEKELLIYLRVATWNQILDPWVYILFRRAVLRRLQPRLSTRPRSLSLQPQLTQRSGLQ
Description: Functional data, human TP receptor. The data set is classed as cell-based. The conditions noted are these: NA = not active. The procedure:
(§1) Plasmids encoding the human EP1, EP2, EP3, EP4, FP, TP, IP and DP receptors were prepared by cloning the respective coding sequences into the eukaryotic expression vector pCEP4 (Invitrogen). The pCEP4 vector contains an Epstein Barr virus (EBV) origin of replication, which permits episomal replication in primate cell lines expressing EBV nuclear antigen (EBNA-1). It also contains a hygromycin resistance gene that is used for eukaryotic selection. The cells employed for stable transfection were human embryonic kidney cells (HEK-293) that were transfected with and express the EBNA-1 protein. These HEK-293-EBNA cells (Invitrogen) were grown in medium containing Geneticin (G418) to maintain expression of the EBNA-1 protein. HEK-293 cells were grown in DMEM with 10% fetal bovine serum (FBS), 250 μg ml^−1 G418 (Life Technologies) and 200 μg ml^−1 gentamicin or penicillin/streptomycin.
(§2) For transfection, the cells were grown to 50-60% confluency on 10 cm plates. The plasmid pCEP4 incorporating cDNA inserts for the respective human prostanoid receptor (20 μg) was added to 500 μl of 250 mM CaCl2. HEPES buffered saline×2 (2×HBS, 280 mM NaCl, 20 mM HEPES acid, 1.5 mM Na2HPO4, pH 7.05-7.12) was then added dropwise to a total of 500 μl, with continuous vortexing at room temperature. After 30 min, 9 ml DMEM were added to the mixture. The DNA/DMEM/calcium phosphate mixture was then added to the cells, which had been previously rinsed with 10 ml PBS. The cells were then incubated for 5 hr at 37° C. in humidified 95% air/5% CO2. The calcium phosphate solution was then removed and the cells were treated with 10% glycerol in DMEM for 2 min. The glycerol solution was then replaced by DMEM with 10% FBS. The cells were incubated overnight and the medium was replaced by DMEM/10% FBS containing 250 μg ml^−1 G418 and penicillin/streptomycin. The following day hygromycin B was added to a final concentration of 200 μg ml^−1.
(§3) Ten days after transfection, hygromycin B resistant clones were individually selected and transferred to a separate well on a 24 well plate. At confluence each clone was transferred to one well of a 6 well plate, and then expanded in a 10 cm dish. Cells were maintained under continuous hygromycin selection until use.

Data set [2] deals with T2, hEP4 (Homo sapiens, UniProt P35408).
T2 construct: expressed in transfected cells
Description: Functional data, human EP4 receptor. Type of data set: cell-based. The conditions noted are these: NA = not active. The procedure:
as §1, §2, §3

Data set [3] deals with T2, hEP4. As to the kind of experiment: Radioligand binding, human EP4 receptor. The conditions noted are these: NA = not active. The method, then: as §1
For transfection, the cells were grown to 50-60% confluency on 10 cm plates. The plasmid pCEP4 incorporating cDNA inserts for the respective human prostanoid receptor (20 μg) was added to 500 μl of 250 mM CaCl2. HEPES buffered saline×2 (2×HBS, 280 mM NaCl, 20 mM HEPES acid, 1.5 mM Na2HPO4, pH 7.05-7.12) was then added dropwise to a total of 500 μl, with continuous vortexing at room temperature. After 30 min, 9 ml DMEM were added to the mixture. The DNA/DMEM/calcium phosphate mixture was then added to the cells, which had been previously rinsed with 10 ml PBS. The cells were then incubated for 5 hr at 37° C. in humidified 95% air/5% CO2. […]
Radioligand binding studies on plasma membrane fractions prepared for cells stably transfected with the cat or human receptor were performed as follows. […] The pellet was then resuspended in TME buffer to provide a final protein concentration of 1 mg/ml, as determined by Bio-Rad assay. […]
The binding of [^3H](N) PGE2 (specific activity 165 Ci/mmol) was determined in duplicate and in at least 3 separate experiments. […] Competition studies were performed using a final concentration of 2.5 or 5 nM [^3H](N) PGE2 and non-specific binding was determined with 10^−5 M unlabelled PGE2.

The target of data set [4] is T3, hEP1 (Homo sapiens, UniProt P34995).
T3 construct: expressed in transfected cells
T3 sequence (P34995 1-402): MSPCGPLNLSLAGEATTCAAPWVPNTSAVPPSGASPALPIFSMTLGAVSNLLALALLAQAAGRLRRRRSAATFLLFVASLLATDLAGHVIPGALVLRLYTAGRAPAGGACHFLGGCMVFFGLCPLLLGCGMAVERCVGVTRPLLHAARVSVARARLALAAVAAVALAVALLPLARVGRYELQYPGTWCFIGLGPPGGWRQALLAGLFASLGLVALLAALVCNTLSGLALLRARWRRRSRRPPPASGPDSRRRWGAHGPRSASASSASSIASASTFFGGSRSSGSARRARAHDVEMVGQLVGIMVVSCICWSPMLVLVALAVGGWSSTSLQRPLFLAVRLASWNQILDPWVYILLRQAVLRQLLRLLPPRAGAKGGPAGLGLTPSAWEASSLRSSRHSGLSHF
Description: Functional data, human EP1 receptor. The data set is classed as cell-based. The conditions noted are these: NA = not active. The method, then: as §1, §2
Ten days after transfection, hygromycin B resistant clones were individually selected and transferred to a separate well on a 24 well plate. […]

Data set [5] has as its target T4, hEP3A (Homo sapiens, UniProt P43115).
T4 construct: expressed in transfected cells
T4 sequence (P43115 1-390): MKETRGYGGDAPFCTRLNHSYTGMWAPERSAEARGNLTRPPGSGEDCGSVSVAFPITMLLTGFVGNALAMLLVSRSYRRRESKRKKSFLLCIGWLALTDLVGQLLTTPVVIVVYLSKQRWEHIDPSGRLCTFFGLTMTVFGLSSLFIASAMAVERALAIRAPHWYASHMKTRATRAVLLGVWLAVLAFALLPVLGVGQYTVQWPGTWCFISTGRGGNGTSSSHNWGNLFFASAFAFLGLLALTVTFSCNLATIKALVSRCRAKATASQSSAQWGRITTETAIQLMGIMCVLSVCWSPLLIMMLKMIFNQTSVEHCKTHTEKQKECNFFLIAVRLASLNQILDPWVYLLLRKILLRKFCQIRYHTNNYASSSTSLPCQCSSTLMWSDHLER
Description: Functional data, human EP3A receptor. The data set is classed as cell-based. The conditions noted are these: NA = not active. The method, then:
as §1
For transfection, the cells were grown to 50-60% confluency on 10 cm plates. The plasmid pCEP4 incorporating cDNA inserts for the respective human prostanoid receptor (20 μg) was added to 500 μl of 250 mM CaCl2. HEPES buffered saline×2 (2×HBS, 280 mM NaCl, 20 mM HEPES acid, 1.5 mM Na2HPO4, pH 7.05-7.12) was then added dropwise to a total of 500 μl, with continuous vortexing at room temperature. After 30 min, 9 ml DMEM were added to the mixture. […]

The test system of data set [6] is normotensive dogs. As to the kind of experiment: Ocular surface hyperemia in dogs. The conditions noted are these: topical once daily dosing, 0.1%, 1.5 at 26, 50 and 52 h. Type of data set: in vivo, dog. The method, then: (§4) The effects of the compounds of this invention on intraocular pressure may be measured as follows. The compounds are prepared at the desired concentrations in a vehicle comprising 0.1% polysorbate 80 and 10 mM TRIS base. Dogs are treated by administering 25 μl to the ocular surface, the contralateral eye receives vehicle as a control. Intraocular pressure is measured by applanation pneumatonometry. A topical once daily dosing of (4-{(R)-2-[(E)-4-(3-chlorophenyl)-3-hydroxy-but-1-enyl]-5-oxo-pyrrolidin-1-yl}-butoxy)-acetic acid [example 8] […] The maximum ocular surface hyperemia score was 1.5 (1.5 at 26, 50 and 52 h).

The subject of data set [7] is normotensive dogs. As to the kind of experiment: Intraocular pressure in dogs, applanation pneumatonometry. The data set is classed as in vivo, dog. The conditions noted are these: topical once daily dosing, 0.1%, at 52 h, normotensive dogs (n=8). The procedure:
as §4

T2 sequence (P35408 whole entry): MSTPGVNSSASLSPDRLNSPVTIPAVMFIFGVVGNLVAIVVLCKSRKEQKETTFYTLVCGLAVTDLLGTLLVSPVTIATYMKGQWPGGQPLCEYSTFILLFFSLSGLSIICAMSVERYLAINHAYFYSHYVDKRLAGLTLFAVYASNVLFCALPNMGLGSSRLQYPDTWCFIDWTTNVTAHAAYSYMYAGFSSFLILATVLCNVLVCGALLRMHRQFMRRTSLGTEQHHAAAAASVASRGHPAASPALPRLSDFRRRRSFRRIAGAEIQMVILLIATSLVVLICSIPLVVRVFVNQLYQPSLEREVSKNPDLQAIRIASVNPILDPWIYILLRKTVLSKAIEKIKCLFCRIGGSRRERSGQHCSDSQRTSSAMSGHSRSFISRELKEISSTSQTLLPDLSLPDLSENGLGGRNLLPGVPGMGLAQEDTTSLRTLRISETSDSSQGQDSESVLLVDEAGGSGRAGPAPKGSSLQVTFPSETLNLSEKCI

What is called EC50 is the concentration at which the effect is half-maximal. A high value points to a less potent agent. For `COC(=O)COCCCCN1C(=O)CCC1CCC(=O)Cc1cccc(Cl)c1` (stereo in doubt) [Example 3, (4-{(R)-2-[4-(3-Chlorophenyl)-3-oxo-butyl]-5-oxo-pyrrolidin-1-yl}-butoxy)-acetic Acid Methyl Ester], the EC50 in data set [1] and in data set [2] was greater than 10000 nM each time.

As usually defined, the IC50 is the concentration that gives 50% inhibition. A high value points to weaker potency. Regarding `O=C(O)COCCCCN1C(=O)CCC1CCC(=O)Cc1cccc(Cl)c1` (stereo in doubt) [Example 4, (4-{(R)-2-[4-(3-Chlorophenyl)-3-oxo-butyl]-5-oxo-pyrrolidin-1-yl}-butoxy)-acetic Acid], the results for the EC50 in data set [1] and in data set [2] were greater than 10000 nM and 1720 nM, respectively. Besides, in data set [3], the IC50 came to 3100 nM.

In the case of `COC(=O)COCCCCN1C(=O)CC[C@@H]1CC[C@H](O)Cc1cccc(Cl)c1` (stereo in doubt) [Example 5, (4-{(R)-2-[4-(3-Chlorophenyl)-3-hydroxy-butyl]-5-oxo-pyrrolidin-1-yl}-butoxy)-acetic Acid Methyl Ester], the 50% effective concentration (EC50) was greater than 10000 nM in data set [4] and 1780 nM in data set [2].

`O=C(O)COCCCCN1C(=O)CC[C@@H]1CC[C@H](O)Cc1cccc(Cl)c1` (stereo in doubt) [Example 6, (4-{(R)-2-[4-(3-Chlorophenyl)-3-hydroxy-butyl]-5-oxo-pyrrolidin-1-yl}-butoxy)-acetic Acid]: the half-maximal effective concentration (EC50) in data set [1] was greater than 10000 nM; in data set [4], 3810 nM; in data set [2], 192 nM. The IC50 in data set [3] was determined as 562 nM.

As to `COC(=O)COCCCCN1C(=O)CC[C@@H]1/C=C/C(=O)Cc1cccc(Cl)c1` [Example 1, (4-{(R)-2-[(E)-4-(3-chlorolphenyl)-3-oxo-but-1-enyl]-5-oxo-pyrrolidin-1-yl}-butoxy)-acetic Acid Methyl Ester], the values for the EC50 in data set [4] and in data set [2] were 721 nM and 61 nM, respectively.

As to `O=C(O)COCCCCN1C(=O)CC[C@@H]1/C=C/C(=O)Cc1cccc(Cl)c1` [Example 2], the figures for the EC50 in data set [5] and in data set [1] were greater than 10000 nM and less than 10000 nM, respectively.

In turn, `COC(=O)COCCCCN1C(=O)CC[C@@H]1/C=C/[C@H](O)Cc1cccc(Cl)c1` [Example 7, (4-{(R)-2-[(E)-4-(3-Chlorophenyl)-3-hydroxy-but-1-enyl]-5-oxo-pyrrolidin-1-yl}-butoxy)-acetic Acid Methyl Ester] showed an EC50 in data set [2] greater than 10000 nM.

`O=C(O)COCCCCN1C(=O)CC[C@@H]1/C=C/[C@H](O)Cc1cccc(Cl)c1` [Example 8, (4-{(R)-2-[(E)-4-(3-Chlorolphenyl)-3-hydroxy-but-1-enyl]-5-oxo-pyrrolidin-1-yl}-butoxy)-acetic Acid]: the “maximum ocular surface hyperemia score” value in data set [6] is given as 1.5. Besides, the figures for the EC50 in data set [1] and in data set [2] were greater than 10000 nM and 11 nM, respectively. In addition, in data set [7], the “maximum IOP decrease from baseline” value is 4.9 mmHg. Also, the “maximum IOP decrease from baseline (percent)” value in data set [7] was determined as 26.6%. This compound also returned an IC50 in data set [3] of 30 nM.
